Tests used:
[1] = biological target: T1, Dual specificity mitogen-activated protein kinase kinase 1 (Homo sapiens, UniProt Q02750); assay: Inhibitory activity against Dual specificity mitogen-activated protein kinase kinase using coupled MEK assay (which uses activated Raf to activate an inactivate GST-MEK)
[2] = biological target: T1, Dual specificity mitogen-activated protein kinase kinase 1; assay: Inhibitory activity against Dual specificity mitogen-activated protein kinase kinase using direct MEK assay (which by-passes the need for activated Raf by using an activated GST-MEK)
LoVo = assay: Inhibition of LoVo human colon tumor cell proliferation
[3] = biological target: T1, Dual specificity mitogen-activated protein kinase kinase 1; assay: Inhibition of Dual specificity mitogen-activated protein kinase kinase in coupled activated Raf/MEK assay
[4] = biological target: T1, Dual specificity mitogen-activated protein kinase kinase 1; assay: Inhibition of Dual specificity mitogen-activated protein kinase kinase in direct activated MEK assay

T1 sequence (Q02750 whole entry): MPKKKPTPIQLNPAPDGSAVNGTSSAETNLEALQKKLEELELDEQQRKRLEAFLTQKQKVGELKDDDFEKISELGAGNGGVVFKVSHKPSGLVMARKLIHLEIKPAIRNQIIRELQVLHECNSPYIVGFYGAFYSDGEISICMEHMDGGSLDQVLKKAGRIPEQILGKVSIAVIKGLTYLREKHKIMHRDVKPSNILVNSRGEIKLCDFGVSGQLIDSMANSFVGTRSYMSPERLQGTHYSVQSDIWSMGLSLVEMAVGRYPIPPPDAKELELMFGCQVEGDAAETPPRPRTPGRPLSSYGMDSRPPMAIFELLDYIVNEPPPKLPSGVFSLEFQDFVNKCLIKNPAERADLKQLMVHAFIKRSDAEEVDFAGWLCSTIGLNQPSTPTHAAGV

Compound | IC50 [1] [nM] | IC50 [2] [nM] | IC50 (LoVo) [nM] | IC50 [3] [nM] | IC50 [4] [nM]
COc1cc2c(Nc3ccc(SC4CCCCC4)cc3)c(C#N)cnc2cc1OCCCN1CCOCC1 | 21 | 300 |  |  | 
COc1cc2c(Nc3ccc(CC4CCCCC4)cc3)c(C#N)cnc2cc1OCCCN1CCOCC1 | 200 | 3300 |  |  | 
COc1cc2c(Nc3ccc(Cc4cccs4)cc3)c(C#N)cnc2cc1OCCCN1CCOCC1 | 4.4 | 20 |  |  | 
COc1cc2c(Nc3ccc(Sc4ccccc4)cc3)c(C#N)cnc2cc1OCCCN1CCOCC1 | 1.1 | 5.7 | 220 |  | 
COc1cc2c(Nc3ccc(CCc4ccccc4)cc3)c(C#N)cnc2cc1OCCCN1CCOCC1 |  |  |  | 33 | 150
COc1cc2c(Nc3ccc(Cc4ccccc4)cc3)c(C#N)cnc2cc1OCCCN1CCOCC1 | 2.7 | 14 | 210 |  | 
COc1cc2c(Nc3ccc(OC4CCCCC4)cc3)c(C#N)cnc2cc1OCCCN1CCOCC1 | 110 | 320 |  |  | 
COc1cc2c(Nc3ccc(Oc4ccncc4)cc3)c(C#N)cnc2cc1OCCCN1CCOCC1 | 26 | 81 |  |  | 
COc1cc2c(Nc3ccc(Oc4ccccc4)cc3)c(C#N)cnc2cc1OCCCN1CCOCC1 | 2.4 |  |  |  | 

Results, then the compound that gave them:

IC50 [1] [nM] | IC50 [2] [nM] | IC50 (LoVo) [nM] | IC50 [3] [nM] | IC50 [4] [nM] | Compound
520 | 3000 |  |  |  | COc1ccc(Nc2c(C#N)cnc3cc(OC)c(OC)cc23)cc1
> 10000 | > 10000 |  |  |  | COc1cc2ncc(C#N)c(Nc3ccccc3Oc3ccccc3)c2cc1OC
550 | 2200 |  |  |  | COc1cc2ncc(C#N)c(Nc3ccc(O)cc3)c2cc1OC
4.2 | 23 |  |  |  | COc1cc2c(Nc3ccc(Cc4ccsc4)cc3)c(C#N)cnc2cc1OCCCN1CCOCC1
99 | 250 |  |  |  | COc1ccc(Nc2c(C#N)cnc3cc(OCCCN4CCOCC4)c(OC)cc23)cc1
280 | 1300 |  |  |  | COc1cc2ncc(C#N)c(Nc3ccc(SC)cc3)c2cc1OC
14 | 43 |  |  |  | COc1cc2c(Nc3ccc(Cc4ccoc4)cc3)c(C#N)cnc2cc1OCCCN1CCOCC1
20 | 66 |  |  |  | COc1cc2c(Nc3ccc(Cc4ccco4)cc3)c(C#N)cnc2cc1OCCCN1CCOCC1
43 | 210 |  |  |  | COc1cc2ncc(C#N)c(Nc3ccc(Oc4ccc(Cl)cc4)cc3)c2cc1OC
160 | 1200 |  |  |  | COc1cc2ncc(C#N)c(Nc3ccc(Nc4ccccc4)cc3)c2cc1OC
